Source: patent US12636370B2, “Combination therapy for treatment of cancer” (Institute For Cancer Research, priority 2019, dated 2026)

How the values were obtained:
Type in all cases: cell-based
OVCAR8 MZ1-R cells [1] = experiment: CellTiter-Glo cell viability, OVCAR8 MZ1-R cells; details: escalating doses, 5 days; for cell viability of MZ1-R cells compared with parental cells: OVCAR8 MZ1-R; for sensitivity of MZ1-R cells relative to JQ1-R cells or parental cells: OVCAR8, inhibitor screen
OVCAR8 ARV-R cells [2] = experiment: CellTiter-Glo cell viability, OVCAR8 ARV-R cells; details: escalating doses, 5 days
OVCAR8 JQ1-R cells [3] = experiment: Apoptosis by cleaved PARP Western blot, OVCAR8 JQ1-R cells
OVCAR8 MZ1-R cells [4] = experiment: Apoptosis by Western blot, OVCAR8 MZ1-R cells
[5] = system: BET proteins (BRD2, BRD3, BRD4); experiment: Western blot of BET proteins, OVCAR8 ARV-R cells
[6] = system: BET proteins (BRD2, BRD3, BRD4); experiment: Western blot of BET protein levels, OVCAR8 parental cells
OVCAR8 cells [7] = experiment: Single-run proteome analysis and RNA-seq, OVCAR8 cells; details: 48 hours, single-run proteome analysis
Procedure: Enrichment maps of pathways repressed by short-term BBD generated from single-run proteome profiles of OVCAR8 cells treated with BBDs (MZ1 or ARV825) for 48 hours were prepared (data not shown). Statistical differences in protein log 2 LFQ z-scores comparing BBDs or BBIs to control treated cells was determined by paired T-Test Benjamini-Hochberg adjusted p values at FDR of <0.05 using Perseus Software. […] Enrichment maps were generated in Cytoscape using the Enrichment Map app v2.2.1. […] Statistical differences in protein log 2 LFQ z-scores comparing BBDs or BBIs to control treated cells was determined.

BET proteins, FOSL1, MYC = experiment: Western blot of BET proteins and BRD4 targets, JQ1-R cells
[8] = system: BET proteins (BRD2, BRD3, BRD4); experiment: Western blot of BET proteins and BRD4 targets, OVCAR8 MZ1-R cells; details: Western blot
OVCAR8 JQ1-R cells [9] = experiment: CellTiter-Glo cell viability, OVCAR8 JQ1-R cells; details: escalating doses, 5 days
OVCAR8 ARV-R cells [10] = experiment: Apoptosis by cleaved PARP Western blot, OVCAR8 ARV-R cells
OVCAR8 cells [11] = experiment: CellTiter-Glo cell viability, OVCAR8 parental cells; details: dose escalation, 5 days
[12] = system: translation markers, RNA pol II, MYC; experiment: Western blot of translation, BRD4-targets and MYC signaling, OVCAR8 cells; details: 500 nM, 48 hours
[13] = system: INSR and downstream MTOR, AKT and MAPK signaling; experiment: Kinase signaling in BBD-R cells (MIB-MS, phospho-blot); details: for phosphorylation of P70S6K (T359): BBD-R cells (MZ1-R, ARV-R), 1 μM, 4 hours
Procedure: Reduced MIB-binding of kinases involved in cell cycle (WEE1, CHEK1, CDK2, CDK6 and PLK1), as well as kinases required for translation (EIF2AK1, EIF2AK2, and EIF2AK4) were also observed following GSK529A treatment. […] Enrichment maps of pathways repressed by INSR inhibition generated from MIB-MS profiles of OVCAR8 cells treated with GSK529A (1 μM) treatment for 48 hours. Statistical differences in protein log 2 LFQ z-scores comparing GSK529A to control treated MZ1-R cells was determined by paired T-Test Benjamini- Hochberg adjusted p values at FDR of <0.05 using Perseus Software. […] Enrichment maps were generated in Cytoscape using the Enrichment Map app v2.2.1. (data not shown).

[14] = system: BET proteins (BRD2, BRD4); experiment: Western blot of BET proteins, KURAMOCHI, COV362 and OVCAR5 MZ1-R cells
OVCAR5 JQ1-R cells = experiment: Growth curves, OVCAR5 JQ1-R cells
[15] = system: KURAMOCHI, COV362 and OVCAR5 MZ1-R cells; experiment: CellTiter-Glo cell viability, KURAMOCHI, COV362 and OVCAR5 MZ1-R cells; details: COV362 and OVCAR5, escalating doses, 5 days
BRD2, BRD3 or BRD4 RNA = experiment: qRT-PCR of BRD RNA levels, OVCAR8 MZ1-R cells; details: 1 μM, 48 hours

Cc1sc2c(c1C)C(c1ccc(Cl)cc1)=N[C@@H](CC(=O)Nc1ccc(OCCOCCOCCOCCNc3cccc4c3C(=O)N(C3CCC(=O)NC3=O)C4=O)cc1)c1nnc(C)n1-2 (stereo partly shown) [ARV825]
cell viability of MZ1-R cells compared with parental cells (OVCAR8 MZ1-R cells [1]): inhibited cell viability
cell viability of ARV-R cells compared with parental cells (OVCAR8 ARV-R cells [2]): rightward shift
apoptosis (OVCAR8 JQ1-R cells [3]): induced apoptosis
apoptosis (OVCAR8 MZ1-R cells [4]): promoted apoptosis
BET protein levels [5]: insufficient to degrade BRD2, BRD3 or BRD4
BET protein levels [6]: degraded BET proteins in a concentration-dependent manner
global protein level changes (OVCAR8 cells [7]): uniquely downregulated proteins involved in ribosome and translation signaling
BET protein levels (BET proteins, FOSL1, MYC): degraded BET proteins
BRD4 target (FOSL1, MYC) protein levels (BET proteins, FOSL1, MYC): reduced MYC/FOSL1 protein levels
BET protein levels [8]: reduced BET proteins
cell viability of JQ1-R cells (OVCAR8 JQ1-R cells [9]): inhibited cell viability

Cc1ncsc1-c1ccc([C@H](C)NC(=O)[C@@H]2C[C@@H](O)CN2C(=O)[C@@H](NC(=O)COCCCOCCNC(=O)C[C@@H]2N=C(c3ccc(Cl)cc3)c3c(sc(C)c3C)-n3c(C)nnc32)C(C)(C)C)cc1 [ARV-771]
cell viability of MZ1-R cells compared with parental cells (OVCAR8 MZ1-R cells [1]): cross-resistant
cell viability of ARV-R cells compared with parental cells (OVCAR8 ARV-R cells [2]): failed to reduce BET proteins, block growth or induce apoptosis
BET protein levels [5]: failed to reduce BET proteins, block growth or induce apoptosis
apoptosis (OVCAR8 ARV-R cells [10]): failed to reduce BET proteins, block growth or induce apoptosis

O=C(O)c1ccc2c(c1)nc(Nc1cccc(Cl)c1)c1ccncc12 [Cx-4945]
cell viability of MZ1-R cells compared with parental cells (OVCAR8 MZ1-R cells [1]): more sensitive
cell viability of JQ1-R cells (OVCAR8 JQ1-R cells [9]): more sensitive

CS(=O)(=O)N1CCN(Cc2cc3nc(-c4cccc5[nH]ncc45)nc(N4CCOCC4)c3s2)CC1 [GDC-0941]
cell viability of MZ1-R cells compared with parental cells (OVCAR8 MZ1-R cells [1]): more sensitive
cell viability of JQ1-R cells (OVCAR8 JQ1-R cells [9]): more sensitive

Cc1sc2c(c1C)C(c1ccc(Cl)cc1)=N[C@@H](CC(=O)OC(C)(C)C)c1nnc(C)n1-2 [JQ1]
cell viability of MZ1-R cells compared with parental cells (OVCAR8 MZ1-R cells [1]): reduced cell viability to a greater extent than parental cells
cell viability of ARV-R cells compared with parental cells (OVCAR8 ARV-R cells [2]): reduced cell viability to a greater extent than parental cells
BRD4 target (FOSL1, MYC) protein levels (BET proteins, FOSL1, MYC): failed to reduce BRD4 target FOSL1
GI50 (OVCAR8 cells [11]): 133 nM
RNA pol II (S2) phosphorylation [12]: not observed with JQ1
cell viability of JQ1-R cells (OVCAR8 JQ1-R cells [9]): unaffected by increasing doses of JQ1

COc1ncccc1-c1cnn2ccc(N3CCN(C(=O)OC(C)C)CC3)nc12 [LP-935509]
sensitivity of MZ1-R cells relative to JQ1-R cells or parental cells (OVCAR8 MZ1-R cells [1]): more sensitive
cell viability of ARV-R cells compared with parental cells (OVCAR8 ARV-R cells [2]): reduced cell viability more than in parental cells

CNc1ncc2cc(-c3cc(NC(=O)NCCC(C)(C)C)c(F)cc3C)c(C)nc2n1 [LY3009120]
cell viability of JQ1-R cells (OVCAR8 JQ1-R cells [9]): most profound impact on JQ1-R cell viability

NC1(c2ccc(-c3nc4ccn5c(=O)[nH]nc5c4cc3-c3ccccc3)cc2)CCC1 [MK-2206]
sensitivity of MZ1-R cells relative to JQ1-R cells or parental cells (OVCAR8 MZ1-R cells [1]): more sensitive
cell viability of ARV-R cells compared with parental cells (OVCAR8 ARV-R cells [2]): reduced cell viability more than in parental cells

COC[C@@H](C)NC1CCC(Nc2cc(-c3cccc(NCC4(C#N)CCOCC4)n3)c(Cl)cn2)CC1 (stereo partly shown) [NVP-2]
cell viability of MZ1-R cells compared with parental cells (OVCAR8 MZ1-R cells [1]): more sensitive
cell viability of JQ1-R cells (OVCAR8 JQ1-R cells [9]): more sensitive

CNC(=O)c1ccccc1Nc1cc(Nc2ccc(N3CCOCC3)cc2OC)ncc1C(F)(F)F [PND-1186]
sensitivity of MZ1-R cells relative to JQ1-R cells or parental cells (OVCAR8 MZ1-R cells [1]): more sensitive

CCC(=O)N1CCN(c2ccc(-n3c(=O)ccc4cnc5ccc(-c6cnc7ccccc7c6)cc5c43)cc2C(F)(F)F)CC1 [Torin-1]
BET protein levels [5]: reduced BRD2 and BRD4 levels
BET protein levels [8]: reduced BRD2 and BRD4 levels
phosphorylation of P70S6K (T359) [13]: reduced MTOR-mediated phosphorylation of P70S6K (T359)

CC(C)C[C@H](NC(=O)[C@H](Cc1ccccc1)NC(=O)c1cnccn1)B(O)O [bortezomib]
phosphorylated RNA pol II (S2) ([13]; OVCAR8 MZ1-R cells, 48 hour RAD001 treatment, with or without bortezomib): could be reversed by bortezomib treatment

CCN(CCO)CCCC(C)Nc1ccnc2cc(Cl)ccc12 (stereo not shown) [hydroxychloroquine]
cell viability of MZ1-R cells compared with parental cells (OVCAR8 MZ1-R cells [1]): more sensitive
cell viability of JQ1-R cells (OVCAR8 JQ1-R cells [9]): more sensitive

CS(=O)(=O)CCNCc1ccc(-c2ccc3ncnc(Nc4ccc(OCc5cccc(F)c5)c(Cl)c4)c3c2)o1 [lapatinib]
cell viability of ARV-R cells compared with parental cells (OVCAR8 ARV-R cells [2]): reduced cell viability more than in parental cells
BET protein levels [14]: reduced BRD2 and BRD4 proteins
growth inhibition (OVCAR5 JQ1-R cells): minimal growth inhibition
BET protein levels [5]: reduced BRD2 and BRD4 levels
BET protein levels [8]: reduced BRD2 and BRD4 levels
cell viability / growth of MZ1-R cells compared with parental cells [15]: significantly blocked cell growth to a greater extent than parental cells
phosphorylation of P70S6K (T359) [13]: reduced MTOR-mediated phosphorylation of P70S6K (T359)
BRD2, BRD3 or BRD4 RNA levels (BRD2, BRD3 or BRD4 RNA): unaffected

O=C(c1cc(Cc2n[nH]c(=O)c3ccccc23)ccc1F)N1CCN(C(=O)C2CC2)CC1 [olaparib]
cell viability of MZ1-R cells compared with parental cells (OVCAR8 MZ1-R cells [1]): more sensitive
cell viability of JQ1-R cells (OVCAR8 JQ1-R cells [9]): more sensitive
